Experimental data published in patent publication US7465748B2, “Amide derivative” (Astellas Pharma Inc., priority 2003, dated 2008).
Like-named read-outs stand apart in the source and are kept apart here.

Experiments:
HSV-1 (strain KOS) = test: Anti-HSV-1 activity assay (MTT, MRC-5 cells); format: cell-based; details: HSV-1 strain KOS 50 TCID50/100 μl, 5 days culture, read-out: EC50 value (suppression of cellular death of MRC-5 cells via HSV-1 replication)
Experimental: 10,000 MRC-5 cells were inoculated and cultured in a 96-well microtiter plate, using the growth culture medium [Eagle MEM (Nissui) supplemented with 10% FBS] in 5% CO2 at 37° C. for 4 to 5 days until a monolayer was formed. After the cells were washed with the maintenance culture medium [Eagle MEM supplemented with 2% (v/v) FBS], 100 μl of the maintenance culture medium dissolving therein an appropriate concentration of a test reagent was added to each well. Immediately after the test drug was added, an HSV-1 (strain KOS) solution was inoculated at 50 TCID50 (50% tissue culture infectious dose)/100 μl. After the cells were cultured in 5% CO2 at 37° C. for 5 days, 20 μl of MTT solution [3-(4,5-dimethyl-2-thiazolyl)-2,5-diphenyl-2H-tetrazolium bromide; Sigma] (diluted with PBS to 7.5 mg/ml) was added to each well, for another 24-hour incubation. After the culture medium was discarded, 100 μl of a solvent (prepared by adding 10% Triton X 100 (v/v) and 0.4% hydrochloric acid to isopropanol) was added to each well, to solubilize the generated formazan. The absorbance at 540 nm or 690 nm was measured with a microplate reader. Based on the suppression ratio (%) of the cellular death of the MRC-5 cell via HSV-1 replication, the EC50 value of the test drug was calculated.

VZV (strain CaQu) = test: Anti-VZV activity assay (plaque reduction in HEF cells); format: cell-based, varicella zoster virus (VZV); details: human embryonic fibroblast (HEF) cells infected with VZV strain CaQu, plaque count after 3 to 4 days
Experimental: This assay was carried out in accordance with the method described by Shigeta S. (The Journal of Infectious Diseases, 147, 3, 576-584 (1983). Specifically, human embryonic fibroblast (HEF) cells were inoculated in a 96-well microtiter plate, using a growth culture medium [Eagle MEM (Nissui) supplemented with 10% (v/v) fetal bovine serum (FBS; Sigma)], for culturing in 5% CO2 at 37° C. for 4 days until a monolayer was formed. After washing the cells with a maintenance medium, the cells were inoculated with 100 μl/well of VZV (strain CaQu) which had been diluted to 20 to 30 pfu/100 μl with the maintenance medium (Eagle MEM supplemented with 2% FBS). The plate was centrifuged at 2,000 rpm for 20 minutes at room temperature and then incubated at 37° C. for 3 hours in an atmosphere of 5% CO2 to infect with VZV. After washing three times with the maintenance medium, 100 μl of each test drug diluted to an appropriate concentration with the maintenance medium was added to each well. After culturing the cells at 37° C. for 3 to 4 days in an atmosphere of 5% CO2, the cells were fixed with 100 μl/well of 10% formalin/PBS for 2 to 3 hours. […] After discarding the fixing solution and culture supernatant and subsequently washing the plate with water, a staining solution (0.025% Crystal Violet) was added at 50 μl/well for staining for 2 to 3 minutes, and then, the plate was washed with water and dried at 37° C. Cellular death is induced in the HEF cells infected with VZV, so that plaques of the dead cells are formed in the monolayer of the HEF cells.

HSV-1 strain WT-51 = test: Cutaneous HSV-1 infection mouse model; format: in vivo, HR-1 hairless mouse; details: 10 mg/kg twice a day for 5 days from 3 hours after infection, lesion score for 17 days
Experimental: Using a cutaneous HSV-1 infection mouse model prepared in accordance with the method of H. Machida et al. (Antiviral Res., 1992, 17, 133-143), in vivo activity of the compounds of the invention was tested. The skin of each HR-1 hairless mouse [female, 7 weeks of age] was scratched lengthwise and breadthwise several times using a needle and a virus suspension (HSV-1 strain WT-51, 1.5×10^4 PFU/15 μl) was droped to the scarified region for infection, while anesthetized with diethyl ether
Tested compounds were administered orally as a methyl cellulose suspension, except for compounds marked with asterisk which were dissolved in 20% Cremophor EL (Nakarai Tesuku)/20% polyethylene glycol (PEG) 400/60% H2O solution, starting at 3 hours after the infection, and then at a dose of 10 mg/kg twice a day for 5 days. The symptom of the skin lesion caused by HSV-1 infection were classified in the following scores for 17 days:
Score 0: no signs of infection.
Score 1: localized, barely perceptible small vesicles.
Score 2: slight vesicle spread.
Score 3: large patches of vesicles formed.
Score 4: zosteriform vesicles.
Score 5: large patches of ulcers formed.
Score 6: zosteriform with severe large ulcers.
Score 7: hind limb paralysis or death.
The AUC value was calculated from each group's mean disease score, and the disease inhibitory rate of the group administered with each test compound to the placebo group was calculated using the AUC.

[1] = oral, methyl cellulose suspension
[2] = asterisk: oral, dissolved in 20% Cremophor EL/20% PEG 400/60% H2O solution
[3] = Human alphaherpesvirus 1, MRC5, 120 h
[4] = Human alphaherpesvirus 3, read-out: EC50 value (concentration to inhibit 50% of the plaques)

**Q.** Which results are given for Cc1cccc(C)c1N(CC(=O)Nc1ccc(-c2ncon2)cc1)C(=O)C1CCS(=O)(=O)CC1 [Example 27, N-(2,6-dimethylphenyl)-N-(2-([4-<(1,2,4-oxadiazol-3-yl)phenyl]amino}-2-oxoethyl)tetrahydro-2H-thiopyran-4-carboxamide 1,1-dioxide]?
**A.** EC50 (HSV-1 (strain KOS)): 60 nM; EC50 (VZV (strain CaQu); read-out: EC50 value (concentration to inhibit 50% of the plaques)): 100 nM

**Q.** For COc1ccc(N(CC(=O)Nc2ccc(-c3csc(N)n3)cc2)C(=O)C2CCS(=O)(=O)CC2)cc1 [Comparative Compound B, reference compound], which “Inhibitory activity (%) (disease inhibitory rate vs placebo from AUC of mean disease score)” value (from here on “Inhibitory activity (%)”) (HSV-1 strain WT-51; [1]) is on record?
**A.** 2%

**Q.** COc1ccc(N(CC(=O)Nc2ccc(-c3csc(N)n3)cc2)C(=O)C2CCC(O)CC2)cc1 (stereo not drawn) [Comparative Compound C, reference compound] was tested. Which “Inhibitory activity (%)” value (HSV-1 strain WT-51; [1]) did it give?
**A.** 44%

**Q.** Cc1ccc(N(CC(=O)Nc2ccc(-c3cocn3)cc2)C(=O)C2CCS(=O)(=O)CC2)c(C)c1 [Example 6, N-(2,4-dimethylphenyl)-N-(2-{[4-(1,3-oxazol-4-yl)phenyl]amino}-2-oxoethyl)tetrahydro-2H-thiopyran-4-carboxamide 1,1-dioxide] was tested. Which “Inhibitory activity (%)” value (HSV-1 strain WT-51; [1]) did it give?
**A.** 92%

**Q.** With Cc1cc(N(CC(=O)Nc2ccc(-c3ncon3)cc2)C(=O)C2CCS(=O)(=O)CC2)ccc1Cl [Example 37, N-(4-chloro-3-methylphenyl)-N-(2-{[4-(1,2,4-oxadiazol-3-yl)phenyl]amino)-2-oxoethyl)tetrahydro-2H-thiopyran-4-carboxamide 1,1-dioxide] as the compound, how does the “Inhibitory activity (%)” value (HSV-1 strain WT-51; [1]) read?
**A.** 100%

**Q.** For Nc1nc(-c2ccc(NC(=O)CN(C(=O)c3ccc(F)cc3)c3ccc4ncsc4c3)cc2)cs1 [Comparative Compound A, reference compound], which “Inhibitory activity (%)” value (HSV-1 strain WT-51; [1]) is on record?
**A.** 38%

**Q.** Cc1cccc(C)c1N(CC(=O)Nc1ccc(-c2cocn2)cc1)C(=O)C1CCS(=O)(=O)CC1 [Example 1, N-(2,6-dimethylphenyl)-N-(2-([4-(1,3-oxazol-4-yl)phenyl]amino)-2-oxoethyl)tetrahydro-2H-thiopyran-4-carboxamide 1,1-dioxide] was tested. Which “Inhibitory activity (%)” value (HSV-1 strain WT-51; [2]) did it give?
**A.** *93%

**Q.** Which results are given for O=C(CN(C(=O)C1CCS(=O)(=O)CC1)c1ccc2c(c1)CCC2)Nc1ccc(-c2cocn2)cc1 [Example 11, N-(2,3-dihydro-1H-inden-5-yl)-N-(2-{[4-(1,3-oxazol-4-yl)phenyl]amino)-2-oxoethyl)tetrahydro-2H-thiopyran-4-carboxamide 1,1-dioxide]?
**A.** EC50 (HSV-1 (strain KOS); [3]): 40 nM; EC50 (VZV (strain CaQu); [4]): 60 nM

**Q.** Cc1ccc(N(CC(=O)Nc2ccc(-c3cocn3)cc2)C(=O)C2CCS(=O)(=O)CC2)cc1F [Example 14, N-(3-fluoro-4-methylphenyl)-N-(2-{[4-(1,3-oxazol-4-yl)phenyl]amino)-2-oxoethyl)tetrahydro-2H-thiopyran-4-carboxamide 1,1-dioxide] was tested. Which “Inhibitory activity (%)” value (HSV-1 strain WT-51; [1]) did it give?
**A.** 98%

**Q.** Cc1cccc(C)c1N(CC(=O)Nc1ccc(-n2nccn2)cc1)C(=O)C1CCS(=O)(=O)CC1 [Example 98] was tested. Which EC50 (HSV-1 (strain KOS); [3]) did it give?
**A.** 42 nM

**Q.** And the “Inhibitory activity (%)” value (HSV-1 strain WT-51; [2])?
**A.** *95%

**Q.** And the EC50 (VZV (strain CaQu); [4])?
**A.** 140 nM

**Q.** Nc1nc(-c2ccc(NC(=O)CN(C(=O)C3CCS(=O)(=O)CC3)c3ccc4c(c3)CCC4)cc2)cs1 [Comparative Compound D, reference compound] was tested. Which “Inhibitory activity (%)” value (HSV-1 strain WT-51; [1]) did it give?
**A.** 43%

**Q.** Which results are given for Cc1cccc(C)c1N(CC(=O)Nc1ccc(-c2ccccn2)cc1)C(=O)C1CCS(=O)(=O)CC1 [Example 125]?
**A.** EC50 (HSV-1 (strain KOS); [3]): 28 nM; Inhibitory activity (%) (disease inhibitory rate vs placebo from AUC of mean disease score) (HSV-1 strain WT-51; [2]): *80%; EC50 (VZV (strain CaQu); [4]): 190 nM
